According to patent US20230339900A1, “CASEIN KINASE 1 DELTA MODULATORS” (Janssen Pharmaceutica NV, priority 2020, published 2023):

Assays:
[1] = target: human CSNK1D tagged with nanoluciferase (Homo sapiens (Human), UniProt P48730); experiment: Whole Cell nBRET CSNK1D Binding Assay; details: living CHO cells stably expressing human CSNK1D-nanoluciferase; NanoBret tracer 130 nM; 2 hours 37° C.; read-out: CSNK1D BRET IC50
Procedure, shortened: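 Live CHO cells stably expressing nanoluciferase-tagged CSNK1D, seeded in serum-free OptiMEM, received compound dose-response plus NanoBRET tracer (130 nM) for 2 h at 37 °C.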

[2] = target: human recombinant GST cleaved CSNK1D (Homo sapiens (Human), UniProt P48730); experiment: Purified enzyme assay (ADP-Glo Kinase Assay); assay type: biochemical; details: 2 nM CSNK1D, peptide substrate 150 μM, ATP 20 μM, 45 minutes room temperature
Chain of human recombinant GST cleaved CSNK1D (P48730 whole entry): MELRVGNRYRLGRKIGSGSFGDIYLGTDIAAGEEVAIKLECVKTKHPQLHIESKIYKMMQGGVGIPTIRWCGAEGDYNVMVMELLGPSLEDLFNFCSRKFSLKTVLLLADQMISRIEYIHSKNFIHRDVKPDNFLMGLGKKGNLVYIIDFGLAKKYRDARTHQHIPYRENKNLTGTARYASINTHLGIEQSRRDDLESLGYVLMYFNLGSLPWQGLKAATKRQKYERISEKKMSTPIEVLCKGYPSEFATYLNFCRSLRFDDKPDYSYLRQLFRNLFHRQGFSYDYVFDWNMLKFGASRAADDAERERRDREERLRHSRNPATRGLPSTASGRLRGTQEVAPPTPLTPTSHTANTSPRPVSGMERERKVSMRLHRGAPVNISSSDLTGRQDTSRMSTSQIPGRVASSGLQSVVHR

Chain of human CSNK1D tagged with nanoluciferase (P48730 whole entry): as above

SMILES	IC50 [1]	AC50 [2]
Cn1cc(-c2nc(C3CC3)nc3[nH]ccc23)c(-c2ccc(F)cn2)n1 [Example 125, 2-Cyclopropyl-4-[3-(5-fluoro-2-pyridyl)-1-methyl-pyrazol-4-yl]-7H-pyrrolo[2,3-d]pyrimidine]	1910 nM	66 nM
CCn1cc(-c2ccnc3[nH]ncc23)c(-c2ccc(F)cn2)n1 [Example 56, 4-(1-Ethyl-3-(5-fluoropyridin-2-yl)-1H-pyrazol-4-yl)-1H-pyrazolo[3,4-b]pyridine]	205 nM	5 nM
Cn1cc(-c2cc(C3CC3)nc3[nH]ncc23)c(-c2ccc(F)cn2)n1 [Example 101, 6-Cyclopropyl-4-(3-(5-fluoropyridin-2-yl)-1-methyl-1H-pyrazol-4-yl)-1H-pyrazolo[3,4-b]pyridine]	829 nM	34 nM
Cc1cc(-c2cn(CC(C)C)nc2-c2ccc(F)cn2)c2cn[nH]c2n1 [Example 63, 4-(3-(5-Fluoropyridin-2-yl)-1-isobutyl-1H-pyrazol-4-yl)-6-methyl-1H-pyrazolo[3,4-b]pyridine]	253 nM	6 nM
Cn1cc(-c2ccnc3[nH]ccc23)c(-c2ccncc2F)n1 [Example 18, 4-[3-(3-Fluoro-4-pyridyl)-1-methyl-pyrazol-4-yl]-1H-pyrrolo[2,3-b]pyridine]	1770 nM	26 nM
Cn1cc(-c2ccnc3[nH]ccc23)c(-c2ccc(OC(F)F)cn2)n1 [Example 35, 4-[3-[5-(Difluoromethoxy)-2-pyridyl]-1-methyl-pyrazol-4-yl]-1H-pyrrolo[2,3-b]pyridine]	> 10000 nM	9180 nM
Cn1cc(-c2ccnc3cnccc23)c(-c2ccc(F)cn2)n1 [Example 112, 4-[3-(5-Fluoro-2-pyridyl)-1-methyl-pyrazol-4-yl]-1,7-naphthyridine]	953 nM	51 nM
Cc1cc(-c2cn(CC(F)F)nc2-c2ccc(F)cn2)c2cn[nH]c2n1 [Example 69, 4-(1-(2,2-Difluoroethyl)-3-(5-fluoropyridin-2-yl)-1H-pyrazol-4-yl)-6-methyl-1H-pyrazolo[3,4-b]pyridine]	311 nM	6 nM
CCn1cc(-c2ccnc3[nH]ccc23)c(-c2ccc(F)cn2)n1 [Example 55, 4-[1-Ethyl-3-(5-fluoro-2-pyridyl)pyrazol-4-yl]-1H-pyrrolo[2,3-b]pyridine]	93 nM	7 nM
Cn1cc(-c2ccnc3[nH]c(C4(O)CCOC4)cc23)c(-c2ccc(F)cn2)n1 (racemic) [Example 96, (R/S)-3-(4-(3-(5-Fluoropyridin-2-yl)-1-methyl-1H-pyrazol-4-yl)-1H-pyrrolo[2,3-b]pyridin-2-yl)tetrahydrofuran-3-ol]	148 nM	4 nM
Cc1cc(-c2cn(C3CCC3)nc2-c2ccc(F)cn2)c2cn[nH]c2n1 [Example 71, 4-(1-Cyclobutyl-3-(5-fluoropyridin-2-yl)-1H-pyrazol-4-yl)-6-methyl-1H-pyrazolo[3,4-b]pyridine]	113 nM	3 nM

The next lines start with the values.

IC50 [1]	AC50 [2]	SMILES
7160 nM	75 nM	Cn1cc(-c2c(CC#N)cnc3[nH]ccc23)c(-c2ccc(F)cn2)n1 [Example 90, 2-[4-[3-(5-Fluoro-2-pyridyl)-1-methyl-pyrazol-4-yl]-1H-pyrrolo[2,3-b]pyridin-5-yl]acetonitrile]
71 nM	3 nM	Cn1cc(-c2c(C#N)cnc3[nH]ccc23)c(-c2ccc(F)cn2)n1 [Example 89, 4-[3-(5-Fluoro-2-pyridyl)-1-methyl-pyrazol-4-yl]-1H-pyrrolo[2,3-b]pyridine-5-carbonitrile]
> 10000 nM	746 nM	Cn1cc(-c2ccnc3[nH]ccc23)c(-c2cncnc2)n1 [Example 45, 4-(1-Methyl-3-pyrimidin-5-yl-pyrazol-4-yl)-1H-pyrrolo[2,3-b]pyridine]
1310 nM	18 nM	Cc1cc(-c2cn(C(F)F)nc2-c2ccc(F)cn2)c2cn[nH]c2n1 [Example 67, 4-(1-(Difluoromethyl)-3-(5-fluoropyridin-2-yl)-1H-pyrazol-4-yl)-6-methyl-1H-pyrazolo[3,4-b]pyridine]
460 nM	15 nM	Cn1cc(-c2ccnc3cn[nH]c23)c(-c2ccc(F)cn2)n1 [Example 5, 7-(3-(5-Fluoropyridin-2-yl)-1-methyl-1H-pyrazol-4-yl)-1H-pyrazolo[4,3-b]pyridine]
255 nM	22 nM	Cn1cc(-c2ccnc3[nH]c(C(F)(F)F)cc23)c(-c2ccc(F)cn2)n1 [Example 85, 4-(3-(5-Fluoropyridin-2-yl)-1-methyl-1H-pyrazol-4-yl)-2-(trifluoromethyl)-1H-pyrrolo[2,3-b]pyridine]
329 nM	30 nM	Cc1cc(-c2cn(C3CC3)nc2-c2ccc(F)cn2)c2cn[nH]c2n1 [Example 134, 4-[1-Cyclopropyl-3-(5-fluoro-2-pyridyl)pyrazol-4-yl]-6-methyl-1H-pyrazolo[3,4-b]pyridine]
218 nM	36 nM	Fc1ccc(-c2nn(C3CCOC3)cc2-c2ccnc3[nH]ccc23)nc1 (racemic) [Example 74, (R/S)-4-[3-(5-Fluoro-2-pyridyl)-1-tetrahydrofuran-3-yl-pyrazol-4-yl]-1H-pyrrolo[2,3-b]pyridine]
578 nM	73 nM	Cn1cc(-c2ccnc3cc(F)cnc23)c(-c2ccc(F)cn2)n1 [Example 152, 3-Fluoro-8-[3-(5-fluoro-2-pyridyl)-1-methyl-pyrazol-4-yl]-1,5-naphthyridine]
390 nM	46 nM	Cn1cc(-c2ccnc3[nH]ncc23)c(-c2ncc(F)cc2F)n1 [Example 38, 4-(3-(3,5-Difluoropyridin-2-yl)-1-methyl-1H-pyrazol-4-yl)-1H-pyrazolo[3,4-b]pyridine]
359 nM	68 nM	Cn1cc(-c2ccnc3[nH]ccc23)c(-c2cccnc2)n1 [Example 53, 4-[1-Methyl-3-(3-pyridyl)pyrazol-4-yl]-1H-pyrrolo[2,3-b]pyridine]
306 nM	693 nM	Cn1cc(-c2ccnc3[nH]ncc23)c(-c2ccc(Cl)cn2)n1 [Example 25, 4-(3-(5-Chloropyridin-2-yl)-1-methyl-1H-pyrazol-4-yl)-1H-pyrazolo[3,4-b]pyridine]
7120 nM	168 nM	Cc1cc(-c2nn(C)cc2-c2cc(C)nc3[nH]ncc23)ccn1 [Example 135, 6-Methyl-4-[1-methyl-3-(2-methyl-4-pyridyl)pyrazol-4-yl]-1H-pyrazolo[3,4-b]pyridine]
> 10000 nM	451 nM	Cn1cc(-c2ccnc3[nH]ccc23)c(-c2ccnnc2)n1 [Example 49, 4-(1-Methyl-3-pyridazin-4-yl-pyrazol-4-yl)-1H-pyrrolo[2,3-b]pyridine]
785 nM	109 nM	COc1ccc2nccc(-c3cn(C)nc3-c3ccc(F)cn3)c2c1 [Example 129, 4-[3-(5-Fluoro-2-pyridyl)-1-methyl-pyrazol-4-yl]-6-methoxy-quinoline]
1170 nM	44 nM	Cc1ccc(-c2nn(C)cc2-c2ccnc3[nH]ccc23)cn1 [Example 22, 4-[1-Methyl-3-(6-methyl-3-pyridyl)pyrazol-4-yl]-1H-pyrrolo[2,3-b]pyridine]
128 nM	38 nM	Cn1cc(-c2ccnc3[nH]ccc23)c(-c2ncco2)n1 [Example 7, 2-(1-Methyl-4-(1H-pyrrolo[2,3-b]pyridin-4-yl)-1H-pyrazol-3-yl)oxazole]
